Experimental data reported in the Biogen ADME set (Fang et al. 2023).
Converted amounts (≈) assume the structure as drawn.

Settings: for aqueous solubility: pH 6.8

Row | SMILES | MDR1-MDCK efflux ratio | intrinsic clearance, human liver microsomes [mL/min/kg] | intrinsic clearance, rat liver microsomes [mL/min/kg] | aqueous solubility [µg/mL] | fraction unbound, human plasma | fraction unbound, rat plasma
1 | Cc1cc(C(=O)Nc2nnc3n2CCCC3)n(C)n1 | 1.44 | ≤ 4.74 | 11.4 | – | – | –
2 | CO[C@H]1CC[C@@H](C(=O)c2ccc3nc4c(cc3c2)CCCO4)CC1 | 0.805 | 29.4 | 552 | 44.5 (≈ 137 µM) | – | –
3 | CNC(=O)C1(Cc2ccc(-c3ccncc3)cc2)CCN(Cc2cccc(F)c2)C1 (stereo not drawn) | – | 250 | 891 | 57.5 (≈ 143 µM) | 0.127 | 0.0519
4 | COc1ccc(-c2csc(CC(N)=O)n2)cc1Br | – | – | – | 37.5 (≈ 115 µM) | – | –
5 | O=C(NCc1nc(-c2cnccn2)n[nH]1)C1Cc2ccccc2C1 | 8.75 | ≤ 4.74 | 19 | – | – | –
6 | CCN(CC)C(=O)CSCc1cncc(F)c1 | 0.711 | 31.2 | 835 | – | – | –
7 | CC1(C)[C@@H]2C[C@H]1[C@@]1(O)[C@@H](C2)Oc2c(ccc(O)c2C(=O)NCCNc2ccccn2)[C@@H]1O | 24.5 | 322 | 2010 | – | – | –
8 | Nc1nc(CN2CCN(c3ccc(F)cc3)CC2)cs1 | 0.597 | ≤ 4.74 | 49.7 | 57 (≈ 195 µM) | – | –
9 | O=C(C1CCC1)N1CCC[C@H]1Cn1nnc(-c2cccs2)n1 | 0.712 | – | 4750 | – | – | –
10 | CC(C)C(=O)Nc1ncc(-c2ccccc2)s1 | 0.393 | – | – | 0.55 (≈ 2.23 µM) | – | –
11 | CSc1ccc(NC(=O)Cn2nc(C3CC3)ccc2=O)cc1 | 1.33 | 175 | 611 | 4.75 (≈ 15.1 µM) | – | –
12 | Clc1cccc(Cl)c1Cc1n[nH]c(CCCn2cccn2)n1 | 13.3 | 99.9 | 581 | – | – | –
13 | Cn1c(=O)n(Cc2cccc(OC(F)F)c2)c2cnccc21 | 1.34 | 10.4 | 209 | 49.1 (≈ 161 µM) | – | –
14 | CCCc1ncncc1C(=O)NCc1noc(C2CC2)n1 | 1.73 | ≤ 4.74 | 112 | – | – | –
15 | Cc1cnc(CNC2(c3nccs3)CCCC2)cn1 | – | ≤ 4.74 | 245 | – | – | –
16 | COc1ccc(Nc2nc3ccccc3c3nncn23)cc1 | – | – | – | 0.14 (≈ 0.481 µM) | – | –
17 | CCCCN(C)C(=O)Nc1cc(C)ccn1 | 0.56 | 41.3 | 226 | 24.9 (≈ 113 µM) | – | –
18 | CCCCNC(=O)c1ccc2c(c1)nnn2C | – | ≤ 4.74 | ≤ 10.7 | 26 (≈ 112 µM) | – | –
19 | CCOc1ncccc1C(=O)Nc1sccc1C#N | – | – | – | 1.13 (≈ 4.13 µM) | – | –
20 | CCOc1ccc(Nc2ncccc2C#N)cc1 | – | 99.6 | 319 | 9.23 (≈ 38.6 µM) | – | –

Row | SMILES | MDR1-MDCK efflux ratio | intrinsic clearance, human liver microsomes [mL/min/kg] | intrinsic clearance, rat liver microsomes [mL/min/kg] | aqueous solubility [µg/mL] | fraction unbound, human plasma | fraction unbound, rat plasma
21 | O=c1[nH]c2ccccc2n1C1CCN(Cc2nnc(-c3cc4c(s3)CCCC4)o2)CC1 | – | 51.8 | 1090 | 2.45 (≈ 5.63 µM) | – | –
22 | CCn1nccc1-c1cc(CC2CCNCC2)ncn1 | 54.7 | ≤ 4.74 | ≤ 10.7 | 37.3 (≈ 137 µM) | – | –
23 | Cc1ncsc1CCN1C(=O)NC2(CCCC2)C1=O | – | ≤ 4.74 | 172 | – | – | –
24 | N#Cc1ccccc1NC(=O)CCc1ccccc1 | 0.552 | 16 | 456 | – | – | –
25 | COc1ccc(C2(NCc3cccc4ncccc34)CC2)cc1 | 0.483 | 261 | 1340 | 55.5 (≈ 182 µM) | – | –
26 | CN(C)Cc1csc(-c2nccn2-c2ccc3c(c2)n(C)c(=O)n3C)c1 | 72.5 | ≤ 4.74 | 38.2 | 31.4 (≈ 85.6 µM) | – | –
27 | CN(C)S(=O)(=O)N1CCC(c2ccc3c(NCc4ccccc4F)n[nH]c3n2)CC1 | 3.07 | – | – | 0.15 (≈ 0.347 µM) | – | –
28 | Nc1nc2c3ccccc3oc2c2ccccc12 | 0.236 | – | – | 0.25 (≈ 1.07 µM) | – | –
29 | COc1cccc(Oc2ccc(NC(=O)CN3CCCCC3=O)cn2)c1 | 13.6 | ≤ 4.74 | 76.8 | – | – | –
30 | CC(=O)N1CCC(CNc2nccc3cccnc23)CC1 | 1.9 | ≤ 4.74 | 80.8 | – | – | –
31 | COc1ccc(C2=N/C(=C/c3cc4ccccc4n3C(C)=O)C(=O)O2)cc1 | – | – | – | 2.34 (≈ 6.49 µM) | – | –
32 | O=C(C1CCC1)N1CCC(c2ncc(-c3ccc(F)c(F)c3)[nH]2)CC1 | 3.5 | 43.2 | 2740 | 57.1 (≈ 165 µM) | – | –
33 | Cc1noc2ncnc(N3CCCN(C(=O)C4CC4)CC3)c12 | 21.2 | 6.43 | 149 | – | – | –
34 | O=C(Nc1nc2c(s1)COc1ccccc1-2)c1cnc(Cl)c(Cl)c1 | 1.02 | 33.8 | 279 | 3.7 (≈ 9.78 µM) | – | –
35 | C[C@H]1O[C@@H](Oc2c(-c3cc(O)c(O)c(O)c3)oc3cc(O)cc(O)c3c2=O)[C@@H](O)[C@H](O)[C@H]1O | – | ≤ 4.74 | ≤ 10.7 | – | – | –
36 | COc1ccc(-c2nnc3nn(C)c(=O)n3c2-c2ccc(OC)cc2)cc1 | 0.904 | – | – | 0.25 (≈ 0.688 µM) | – | –
37 | CCc1nsc(N2CCS(=O)(=O)CC2)n1 | – | ≤ 4.74 | ≤ 10.7 | – | – | –
38 | COc1ccc(N)cc1N1CCOC1=O | – | ≤ 4.74 | ≤ 10.7 | 32.2 (≈ 155 µM) | – | –
39 | CC1(C)CN(CC(=O)NCC#N)c2cccc(Cl)c21 | 0.597 | 21.2 | 444 | 28.5 (≈ 103 µM) | – | –
40 | O=C(c1ccc(NS(=O)(=O)c2cccc3cccnc23)cc1)N1CCN(CC2CC2)CC1 | – | 75.9 | 604 | – | – | –

Row | SMILES | MDR1-MDCK efflux ratio | intrinsic clearance, human liver microsomes [mL/min/kg] | intrinsic clearance, rat liver microsomes [mL/min/kg] | aqueous solubility [µg/mL] | fraction unbound, human plasma | fraction unbound, rat plasma
41 | CC(c1nnc(-c2cccs2)o1)N1CCC(n2c(=O)[nH]c3ccccc32)CC1 (stereo not drawn) | 21.1 | 18.1 | 273 | 56.9 (≈ 144 µM) | – | –
42 | Cc1ccccc1CCNC(=O)N(Cc1cccnc1)C1CCN(C)CC1 | 55.7 | 20.4 | 815 | – | – | –
43 | O=C(NCc1cccs1)c1cccnc1 | 0.62 | ≤ 4.74 | ≤ 10.7 | – | – | –
44 | CC(C)(C)C(=O)N1CCC(Cc2ccc(-c3cccs3)cc2)(C(=O)N2CCCC2)CC1 | 0.998 | 223 | 1440 | 23 (≈ 52.4 µM) | 0.00655 | 0.0102
45 | COCCCNc1nnc(-c2ccncc2)s1 | 0.654 | 13.3 | 84.1 | – | – | –
46 | COCC1(C(=O)N(C)Cc2ccc3ccccc3n2)CCC1 | 1.14 | 59.9 | 4180 | – | – | –
47 | CC(=O)N1CCN(c2nc(C(F)(F)F)nc3sc(C)c(C)c23)CC1 | 1.22 | 43 | 217 | 51.3 (≈ 143 µM) | 0.0136 | 0.0421
48 | O=C(CCc1cc2ccccc2o1)N1CCN(c2cnccn2)CC1 | 0.629 | 69.6 | 497 | 55.5 (≈ 165 µM) | – | –
49 | O=C(O)c1ccccc1-c1ccc(CN2CCCCC2)cc1 | 4.17 | ≤ 4.74 | 54.3 | 91.9 (≈ 311 µM) | – | –
50 | Cc1cccc(NC(=O)c2cccnc2N2CCCCC2)n1 | 0.697 | 120 | 1670 | 27.6 (≈ 93.1 µM) | – | –
51 | CCS(=O)(=O)N(C)c1ccc(N(C)C)cc1 | 0.579 | ≤ 4.74 | 2980 | – | – | –
52 | Cc1c(-c2c(F)cc(C(N)=O)c3[nH]c4c(c23)CC[C@H](C(C)(C)O)C4)cccc1-n1c(=O)c2cccc(F)c2n(C)c1=O | 3.4 | 11.4 | 43.4 | 2.4 (≈ 4.19 µM) | 0.0273 | 0.0212
53 | CCN(c1ccc(C(C)C)cc1)S(=O)(=O)c1ccccc1 | 0.516 | – | – | 0.65 (≈ 2.14 µM) | – | –
54 | COc1ccc(-c2[nH]c3ncccc3c2CN(C)CCOc2ccccc2OC)cc1 | 3.88 | – | – | 0.3 (≈ 0.719 µM) | – | –
55 | O=C(CC1CCCC1)NCc1ccncc1 | – | – | – | 58 (≈ 266 µM) | – | –
56 | O=C(NCc1cccc(F)c1)c1[nH]nnc1-c1ccccc1 | 1.37 | ≤ 4.74 | 17.4 | 20.9 (≈ 70.7 µM) | – | –
57 | CC1CCN(C(=O)c2n[nH]c3ccccc23)CC1 | 0.561 | 21.4 | 916 | 26.4 (≈ 109 µM) | – | –
58 | Cc1c(Cl)ccc2cc3n(c12)[C@@H](C)CNC3=O | 0.513 | 10.8 | 70.4 | 33.3 (≈ 134 µM) | 0.0213 | 0.0497
59 | O=C(c1cc(F)ccc1O)N1CCN(C2CCOCC2)CC1 | – | ≤ 4.74 | 201 | – | – | –
60 | NCCn1cc(NC(=O)c2ccccc2)cn1 | – | ≤ 4.74 | ≤ 10.7 | 79.1 (≈ 343 µM) | – | –
